Experimental data: article PMC12030678, “Investigations of In Vitro Anti-Acetylcholinesterase, Anti-Diabetic, Anti-Inflammatory, and Anti-Cancer Efficacy of Garden Cress (Lepidium sativum Linn.) Seed Extracts, as Well as In Vivo Biochemical and Hematological Assays” (Pharmaceutics, 2025)
≈ marks a conversion by molar mass, not a printed value.

Columns and labels:
α-glucosidase enzyme = α-glucosidase enzyme (Saccharomyces cerevisiae, UniProt P53341); assay: α-Glucosidase inhibition (pNPG); assay type: biochemical; details: at 100 µg/mL
α-amylase enzyme = molecular target: T1, α-amylase enzyme (Sus scrofa, UniProt P00690); assay: α-Amylase inhibition (DNSA method); assay type: biochemical; details: at 100 µg/mL
T1 sequence (P00690 16-511): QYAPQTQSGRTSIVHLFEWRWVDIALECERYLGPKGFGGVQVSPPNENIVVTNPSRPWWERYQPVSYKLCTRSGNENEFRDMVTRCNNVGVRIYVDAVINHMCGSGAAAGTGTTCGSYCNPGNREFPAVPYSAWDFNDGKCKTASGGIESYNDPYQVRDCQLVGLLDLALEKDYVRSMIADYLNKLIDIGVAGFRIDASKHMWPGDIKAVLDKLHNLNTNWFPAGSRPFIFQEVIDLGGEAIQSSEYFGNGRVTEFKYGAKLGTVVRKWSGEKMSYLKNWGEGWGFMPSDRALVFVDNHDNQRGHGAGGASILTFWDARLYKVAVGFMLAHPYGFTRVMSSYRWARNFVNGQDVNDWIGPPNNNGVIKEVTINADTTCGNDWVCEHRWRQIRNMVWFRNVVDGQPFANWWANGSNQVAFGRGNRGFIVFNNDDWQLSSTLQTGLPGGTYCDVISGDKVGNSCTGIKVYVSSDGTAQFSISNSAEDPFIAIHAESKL
Description: Anti-Alzheimer's activity
In this study, we assessed the inhibition percentage of the acetylcholinesterase (AChE)
This assay involved calculating the inhibition percentage (%) of α-amylase enzyme using
The mixture was then left at
temperature and diluted with 5 mL of distilled water.

[1] = ABTS radical scavenging activity
Description: (§1) Antioxidant, scavenging, anti-Alzheimer, anti-diabetic, anti-arthritic, anti-inflammatory, cytotoxic, and enzymatic activities were assessed according to the proposed methods detailed in the Supplementary File. All biological activities were assessed in triplicate for all studied extracts. […]
An antioxidant substance capable of donating a hydrogen atom to a solution containing DPPH- can reduce the stable free radical, causing the solution to change color from violet to pale yellow. […]
Two milliliters of a DPPH […]
solution (100 µM) in ethanol were mixed with 2 mL of the sample (at each concentration). […]
For the control, 2 mL of ethanol was added instead of the sample and run simultaneously with the test. Ascorbic acid was used at the same concentrations as a positive control. […]
(7 mM) and potassium persulfate solution (2.4 mM). The working solution was prepared by mixing the two stock solutions in equal quantities and allowing them to react at room temperature in a dark place for 14 hours. The solution was then diluted by mixing 1 mL of ABTS solution with 60 mL of methanol to obtain an absorbance of 0.706 ± 0.01 units at 734 nm using a spectrophotometer. […] The tested samples (at each concentration) were allowed to react with 1 mL of the ABTS solution, and the absorbance was taken at 734 nm after 7 minutes using a spectrophotometer. […]

[2] = Iron reducing power (IRP); details: in vitro iron reducing power
Description: The iron reducing power was determined as µg/mL using the method proposed by Oyaizu
In brief, 1ml of the tested sample (at each concentration) was combined with
1mL of 200mM sodium phosphate buffer (pH 6.6) and 1mL of 1% potassium ferricyanide.
The mixture was then incubated at 50°C for 20 minutes, followed by the addition of 1mL of trichloroacetic acid (10%). After centrifugation at 2000rpm for 10 minutes, the upper layer solution (2.5 mL) was mixed with 2.5 mL of double deionized water and 1mL of fresh ferric chloride (0.1%). The absorbance was measured at 700nm against a blank prepared without the sample. Ascorbic acid was used at the same concentrations as a standard. A high absorbance at 700nm indicates a higher reducing power in the reaction mixture.

[3] = Total antioxidant capacity (TAC), phosphomolybdenum method; details: in vitro total antioxidant capacity
Description: The total antioxidant capacity (TAC) was determined by analyzing the green phosphate/Mo5+
[38]. Samples (at each concentration) were mixed with a reagent solution containing 0.3 N
sulfuric acid, 28 mM sodium phosphate, and 4 mM ammonium molybdate. Methanol (80%)
was used in place of the sample for the blank. The tubes were sealed and incubated in a
boiling water bath for 90 minutes. After cooling to room temperature, the absorbance was
standard. The antioxidant capacity was expressed as mg gallic acid equivalent per gram

[4] = DPPH radical scavenging activity
Description: as §1
The 1,1-Diphenyl-2-picryl-hydrazyl (DPPH) radical scavenging activities were evaluated using the method described by Rahman et al.. An antioxidant substance capable of donating a hydrogen atom to a solution containing DPPH- can reduce the stable free radical, causing the solution to change color from violet to pale yellow. The remaining DPPH- radical was quantified by measuring the intensity of a light-purple colored DPPH methanol solution in the visible range at 518 nm using a spectroscopic method. Two milliliters of a DPPH solution (100 µM) in ethanol were mixed with 2 mL of the sample (at each concentration).
The reaction mixture for each concentration was thoroughly vortexed and then incubated in the dark at room temperature for 30 minutes. The absorbance was then measured spectrophotometrically at 518 nm against a blank (ethanol). For the control, 2 mL of ethanol was added instead of the sample and run simultaneously with the test. Ascorbic acid was used at the same concentrations as a positive control. Percent inhibition of the DPPH free radical was calculated. […]

[5] = Nitric oxide (NO) radical scavenging activity
Description: Antioxidant, scavenging, anti-Alzheimer, anti-diabetic, anti-arthritic, anti-inflammatory, cytotoxic, and enzymatic activities were assessed according to the proposed methods detailed in the Supplementary File. All biological activities were assessed in triplicate for all studied extracts.

Bcl-2 = assay type: cell-based, human
Description: as §1
(§2) Cytotoxic activity and Enzymatic Assay […]
(§3) The cells were dispensed in a 96-well sterile […]
(§4) different concentrations of 10 μL of each compound or doxorubicin (positive control, in DMSO) for 48 h in a serum free medium prior to the MTT assay. […]
Corporation, following the manufacturer's instructions. Activities of Bcl-2 were measured using the Invitrogen Zymed Bcl-2 ELISA Kit (96 tests) from Invitrogen Corporation, following the manufacturer's instructions.

caspase-3 = assay type: cell-based, human
Description: as §1, §2, §3, §4
Activities of caspase-3 were measured by enzyme-linked immunosorbent assay (ELISA) using the Invitrogen caspase-3 (Active) (human) ELISA kit (96 tests) from Invitrogen Corporation, following the manufacturer's instructions. […]

Caco-2 cells = assay: Cytotoxic activity, MTT assay, Caco-2; assay type: cell-based; details: Homo sapiens, 48 h, read-out: IC50 (μg/mL) Caco-2
Description: as §1
Cytotoxic activity and Enzymatic Assay
It will be assayed against human hepatocellular carcinoma (HepG-2), colon cancer (Caco-2), and lung cancer (A549) cells using 3-(4,5-dimethythiazol-2-yl)-2,5-diphenyl tetrazolium bromide (MTT) assay by determining the optical density (OD) at 570 nm according to the […]
as §3
different concentrations of 10 μL of each compound or doxorubicin (positive control, in DMSO) for 48 h in a serum free medium prior to the MTT assay. Subsequently, the media were carefully removed, and 40 μL of MTT (2.5 mg/mL) was added to each well and then incubated for an additional 4 h. Purple formazan dye crystals were solubilized by the addition of 200 μL of DMSO. The absorbance was measured at 570 nm using a SpectraMax Paradigm Multi-Mode microplate reader. The relative cell viability was expressed as the mean percentage of viable cells relative to the untreated control cells. All experiments were conducted in triplicate. Percent of the cell-growth inhibition (%) and the IC50 was calculated using IC50 calculation software. […]

[6] = molecular target: T2, 5-LOX enzyme (human recombinant) (Homo sapiens, UniProt P09917); assay: 5-Lipoxygenase inhibition assay; assay type: biochemical; details: inhibition at 100 µg/mL
T2 construct: purchased Sigma-Aldrich 437996
T2 sequence (P09917 1-674): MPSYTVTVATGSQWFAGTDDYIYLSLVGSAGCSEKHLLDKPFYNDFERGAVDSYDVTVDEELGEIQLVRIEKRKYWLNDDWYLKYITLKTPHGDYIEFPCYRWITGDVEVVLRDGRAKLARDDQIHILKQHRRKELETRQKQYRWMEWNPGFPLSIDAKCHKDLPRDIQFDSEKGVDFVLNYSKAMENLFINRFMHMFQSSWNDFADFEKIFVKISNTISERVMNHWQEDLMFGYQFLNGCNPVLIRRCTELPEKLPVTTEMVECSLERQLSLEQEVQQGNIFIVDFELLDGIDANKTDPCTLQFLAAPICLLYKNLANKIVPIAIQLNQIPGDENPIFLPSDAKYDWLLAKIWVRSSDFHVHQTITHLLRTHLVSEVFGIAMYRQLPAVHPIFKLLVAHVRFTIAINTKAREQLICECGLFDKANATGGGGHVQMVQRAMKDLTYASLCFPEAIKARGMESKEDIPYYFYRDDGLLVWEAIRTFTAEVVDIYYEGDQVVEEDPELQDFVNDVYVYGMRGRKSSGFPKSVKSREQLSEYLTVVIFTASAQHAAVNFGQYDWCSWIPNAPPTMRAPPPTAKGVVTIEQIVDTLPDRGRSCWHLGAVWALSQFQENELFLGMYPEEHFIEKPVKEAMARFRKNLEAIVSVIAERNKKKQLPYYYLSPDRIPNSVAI
Description: different concentrations of 10 μL of each compound or doxorubicin (positive control, in DMSO) for 48 h in a serum free medium prior to the MTT assay. Subsequently, the media were carefully removed, and 40 μL of MTT (2.5 mg/mL) was added to each well and then incubated for an additional 4 h. […] The absorbance was measured at 570 nm using a SpectraMax Paradigm Multi-Mode microplate reader. The relative cell viability was expressed as the mean percentage of viable cells relative to the untreated control cells. […] Percent of the cell-growth inhibition (%) and the IC50 was calculated using IC50 calculation software.
Activities of caspase-3 were measured by enzyme-linked immunosorbent assay (ELISA) using the Invitrogen caspase-3 (Active) (human) ELISA kit (96 tests) from Invitrogen Corporation, following the manufacturer's instructions. Activities of Bcl-2 were measured using the Invitrogen Zymed Bcl-2 ELISA Kit (96 tests) from Invitrogen Corporation, following the manufacturer's instructions [52-54].

Sequence of α-glucosidase enzyme (P53341 whole entry): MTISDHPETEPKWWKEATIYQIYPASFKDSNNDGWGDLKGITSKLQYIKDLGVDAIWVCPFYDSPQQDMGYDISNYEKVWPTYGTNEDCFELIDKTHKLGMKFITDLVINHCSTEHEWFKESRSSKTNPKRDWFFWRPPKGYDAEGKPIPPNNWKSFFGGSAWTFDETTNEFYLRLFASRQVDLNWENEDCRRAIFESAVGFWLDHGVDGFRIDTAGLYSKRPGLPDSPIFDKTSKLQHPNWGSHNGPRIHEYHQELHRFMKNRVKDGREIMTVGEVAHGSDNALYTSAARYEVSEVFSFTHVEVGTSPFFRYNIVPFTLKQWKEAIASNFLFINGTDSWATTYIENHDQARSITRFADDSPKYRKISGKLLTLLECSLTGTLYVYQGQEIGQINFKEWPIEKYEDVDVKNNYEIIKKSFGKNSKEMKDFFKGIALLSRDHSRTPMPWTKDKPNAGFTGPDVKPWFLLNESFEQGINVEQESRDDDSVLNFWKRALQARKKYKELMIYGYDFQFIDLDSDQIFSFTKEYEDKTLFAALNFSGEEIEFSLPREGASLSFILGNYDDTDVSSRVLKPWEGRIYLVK

## C[C@H]1O[C@H](O[C@H]2[C@H](O)[C@@H](O)[C@@H](O[C@H]3[C@H](O)[C@@H](O)C(O)O[C@@H]3CO)O[C@@H]2CO)[C@H](O)[C@@H](O)[C@@H]1N[C@H]1C=C(CO)[C@@H](O)[C@H](O)[C@H]1O (stereo partly drawn) [Acarbose]
α-glucosidase enzyme
  α-Glucosidase Inhibition (%): 56.65 ± 0.10%
α-amylase enzyme
  α-Amylase Inhibition (%): 66.90 ± 0.10%

## O=C1O[C@H]([C@@H](O)CO)C(O)=C1O [Ascorbic Acid]
[1]
  IC50 (µg/mL) ABTS: 3.80 ± 0.04 µg/mL (≈ 21.6 µM)
[1]; at 100 µg/mL
  Inhibition (%) ABTS: 70.25 ± 0.11%
[2]
  IRP: 76.75 ± 0.13 µg/mL
[3]
  TAC (mg Gallic Acid/g): 84.50 ± 0.13 mg Gallic Acid/g
[4]
  IC50 (µg/mL) DPPH: 4.29 ± 0.03 µg/mL (≈ 24.4 µM)
[4]; at 100 µg/mL
  Inhibition (%) DPPH: 66.50 ± 0.11%
[5]
  IC50 (µg/mL) NO: 5.51 ± 0.02 µg/mL (≈ 31.3 µM)
[5]; at 100 µg/mL
  Inhibition (%) NO: 60.75 ± 0.11%

## COc1cccc2c1C(=O)c1c(O)c3c(c(O)c1C2=O)C[C@@](O)(C(=O)CO)C[C@@H]3O[C@H]1C[C@H](N)[C@H](O)[C@H](C)O1 [Doxorubicin]
Bcl-2; treated A549 cells, DMSO control 12.58 ± 0.05
  Bcl-2 (ng/mL) A549: 3.27 ± 0.01 ng/mL
Bcl-2; treated Caco-2 cells, DMSO control 5.74 ± 0.08
  Bcl-2 (ng/mL) Caco-2: 1.49 ± 0.02 ng/mL
Bcl-2; treated HepG-2 cells, DMSO control 11.15 ± 0.15
  Bcl-2 (ng/mL) HepG-2: 2.90 ± 0.04 ng/mL
caspase-3; treated A549 cells, DMSO control 88.67 ± 0.12
  Caspase-3 (pg/mL) A549: 341.39 ± 0.46 pg/mL
caspase-3; treated Caco-2 cells, DMSO control 94.81 ± 0.14
  Caspase-3 (pg/mL) Caco-2: 365.02 ± 0.55 pg/mL
caspase-3; treated HepG-2 cells, DMSO control 108.79 ± 0.85
  Caspase-3 (pg/mL) HepG-2: 418.84 ± 3.27 pg/mL
Caco-2 cells
  IC50: 33.3 µg/mL (≈ 61.2 µM)

## CC(c1cc2ccccc2s1)N(O)C(N)=O (stereo not drawn) [Zileuton]
[6]
  5-LOX (%): 55.71 ± 0.11 (Zileuton) %
